Test results: the supplement of paper PMC10307832

Legend:
Assay in all cases: relative viability (nuclei count vs DMSO), 5 days (fraction); higher = more cells survive
17-AAG + Linsitinib = compound: C=CCNC1=C2C[C@@H](C)C[C@H](OC)[C@H](O)[C@@H](C)/C=C(\C)[C@H](OC(N)=O)[C@@H](OC)/C=C\C=C(/C)C(=O)NC(=CC1=O)C2=O [17-AAG] + C[C@]1(O)C[C@@H](c2nc(-c3ccc4ccc(-c5ccccc5)nc4c3)c3c(N)nccn32)C1 [Linsitinib] (partner 1 µM)
Outline: (§1)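 Relative viability is defined as nuclei in treated wells over nuclei in vehicle wells. Duplicate plates were run and medians reported. Lung cancer cell lines in 1536-well plates were dosed by pin tool one day after seeding, with one drug or with a fixed anchor-drug dose plus five library-drug doses (not always all listed) in √10 steps, and nuclei were counted after 5 days.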

17-AAG + Luminespib = compound: C=CCNC1=C2C[C@@H](C)C[C@H](OC)[C@H](O)[C@@H](C)/C=C(\C)[C@H](OC(N)=O)[C@@H](OC)/C=C\C=C(/C)C(=O)NC(=CC1=O)C2=O [17-AAG] + CCNC(=O)c1noc(-c2cc(C(C)C)c(O)cc2O)c1-c1ccc(CN2CCOCC2)cc1 [Luminespib] (partner 0.01 µM)
Outline: as §1

17-AAG + Foretinib = compound: C=CCNC1=C2C[C@@H](C)C[C@H](OC)[C@H](O)[C@@H](C)/C=C(\C)[C@H](OC(N)=O)[C@@H](OC)/C=C\C=C(/C)C(=O)NC(=CC1=O)C2=O [17-AAG] + COc1cc2c(Oc3ccc(NC(=O)C4(C(=O)Nc5ccc(F)cc5)CC4)cc3F)ccnc2cc1OCCCN1CCOCC1 [Foretinib] (partner 0.25 µM)
Outline: as §1

17-AAG + Navitoclax = compound: C=CCNC1=C2C[C@@H](C)C[C@H](OC)[C@H](O)[C@@H](C)/C=C(\C)[C@H](OC(N)=O)[C@@H](OC)/C=C\C=C(/C)C(=O)NC(=CC1=O)C2=O [17-AAG] + CC1(C)CCC(c2ccc(Cl)cc2)=C(CN2CCN(c3ccc(C(=O)NS(=O)(=O)c4ccc(N[C@H](CCN5CCOCC5)CSc5ccccc5)c(S(=O)(=O)C(F)(F)F)c4)cc3)CC2)C1 [Navitoclax] (partner 0.5 µM)
Outline: as §1

Cell Line | relative viability (17-AAG + Linsitinib; first compound 0.00128 µM) | relative viability (17-AAG + Linsitinib; first compound 0.004048 µM) | relative viability (17-AAG + Linsitinib; first compound 0.0128 µM) | relative viability (17-AAG + Linsitinib; first compound 0.04048 µM) | relative viability (17-AAG + Linsitinib; first compound 0.128 µM) | relative viability (17-AAG + Luminespib; first compound 0.00128 µM) | relative viability (17-AAG + Luminespib; first compound 0.004048 µM) | relative viability (17-AAG + Luminespib; first compound 0.0128 µM) | relative viability (17-AAG + Luminespib; first compound 0.04048 µM) | relative viability (17-AAG + Luminespib; first compound 0.128 µM) | relative viability (17-AAG + Foretinib; first compound 0.00128 µM) | relative viability (17-AAG + Foretinib; first compound 0.004048 µM) | relative viability (17-AAG + Foretinib; first compound 0.0128 µM) | relative viability (17-AAG + Foretinib; first compound 0.04048 µM) | relative viability (17-AAG + Foretinib; first compound 0.128 µM) | relative viability (17-AAG + Navitoclax; first compound 0.00128 µM) | relative viability (17-AAG + Navitoclax; first compound 0.004048 µM) | relative viability (17-AAG + Navitoclax; first compound 0.0128 µM) | relative viability (17-AAG + Navitoclax; first compound 0.04048 µM) | relative viability (17-AAG + Navitoclax; first compound 0.128 µM)
NCI-H2228 | 0.614 | 0.264 | 0.171 | 0.15 | 0.141 | 0.124 | 0.102 | 0.11 | 0.157 | 0.107 | 0.772 | 0.587 | 0.142 | 0.119 | 0.0997 | 0.893 | 0.486 | 0.146 | 0.168 | 0.112
NCI-H2347 | 0.91 | 0.84 | 0.997 | 0.656 | 0.37 | 0.62 | 0.278 | 0.274 | 0.299 | 0.374 | – | 1.03 | 0.859 | 0.35 | 0.413 | 0.908 | 0.737 | 0.74 | 0.441 | 0.245
NCI-H2405 | 1.02 | 0.737 | 0.262 | 0.219 | 0.194 | 0.542 | 0.335 | 0.256 | 0.239 | 0.184 | 1.1 | 1.04 | 0.93 | 0.245 | 0.195 | 0.98 | 0.71 | 0.231 | 0.271 | 0.165
NCI-H3122 | 1.02 | 0.985 | 0.254 | 0.207 | 0.138 | 0.099 | 0.059 | 0.0637 | 0.0599 | 0.096 | 0.961 | 0.934 | 0.138 | 0.076 | 0.098 | 1.02 | 1.02 | 0.949 | 0.194 | 0.159
PC-3 [JPC-3] | 1 | 0.883 | 0.959 | – | 0.911 | 0.766 | 0.723 | 0.71 | – | 0.538 | 0.981 | 1.04 | 1.01 | – | 0.885 | 0.794 | 0.82 | 0.835 | – | 0.793
PC-14 | 1 | 0.879 | 0.575 | 0.169 | 0.124 | 0.146 | 0.111 | 0.143 | 0.162 | 0.128 | 0.943 | 0.961 | 0.82 | 0.143 | 0.134 | 1.04 | 1.02 | 1.02 | 0.118 | 0.0935
RERF-LC-KJ | 0.857 | 0.886 | 0.923 | 0.881 | 0.275 | 1.06 | 0.595 | 0.398 | 0.357 | 0.325 | 0.883 | 0.951 | 0.974 | 0.346 | 0.296 | 1.09 | 0.747 | 0.712 | 0.254 | 0.234
SK-LU-1 | 1.19 | 0.455 | 0.352 | 0.212 | 0.191 | 0.215 | 0.174 | 0.176 | 0.177 | 0.15 | 0.863 | 0.566 | 0.167 | 0.143 | 0.127 | 0.818 | 0.164 | 0.135 | 0.152 | 0.136
SK-MES-1 | 1 | 1.01 | 0.598 | 0.282 | 0.165 | 0.633 | 0.327 | 0.181 | 0.166 | 0.157 | 1 | 0.997 | 0.501 | 0.192 | 0.154 | 1.17 | 1.12 | 0.951 | 0.162 | 0.131
SW 1573 | 0.987 | 0.901 | 0.647 | 0.249 | 0.128 | 0.285 | 0.168 | 0.146 | 0.12 | 0.0673 | 0.886 | 1.01 | 0.829 | 0.24 | 0.113 | 0.704 | 0.955 | 0.74 | 0.142 | 0.0734
UMC-11 | 0.967 | 0.943 | 0.751 | 0.299 | 0.178 | 0.973 | 0.94 | 0.552 | 0.254 | 0.196 | 1.02 | 1.04 | 0.847 | 0.27 | 0.174 | 0.363 | 0.37 | 0.304 | 0.17 | 0.138
